Assay results published in patent publication USRE48711E1, “Apoptosis signal-regulating kinase inhibitors” (Gilead Sciences, Inc., priority 2009, dated 2021).

These compounds were tested against ASK1 (Apoptosis Signal-Regulating Kinase 1) (Homo sapiens (Human), UniProt Q99683) (assay: ASK1 (Apoptosis Signal-Regulating Kinase 1) TR-FRET Kinase Assay (Biochemical IC50)). Conditions: TR-FRET, biotin-MBP substrate, 20 min pre-incubation, ATP added as 300 μM solution.
ASK1 (Apoptosis Signal-Regulating Kinase 1), sequence (Q99683 649-946): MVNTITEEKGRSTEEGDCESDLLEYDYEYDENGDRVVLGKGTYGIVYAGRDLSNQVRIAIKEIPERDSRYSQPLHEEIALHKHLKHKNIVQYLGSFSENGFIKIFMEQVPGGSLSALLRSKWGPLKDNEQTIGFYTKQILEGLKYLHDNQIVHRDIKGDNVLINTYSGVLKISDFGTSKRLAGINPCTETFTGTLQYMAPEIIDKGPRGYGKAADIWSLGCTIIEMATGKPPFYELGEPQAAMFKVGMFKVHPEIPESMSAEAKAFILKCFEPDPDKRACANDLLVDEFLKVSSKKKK
In the case of O=C(Nc1cccc(-c2nncn2C2CC2)n1)c1cc(-n2cnc(C(O)C(F)(F)F)c2)ccn1 (stereo not shown) [Example 207, N-(6-(4-cyclopropyl-4H-1,2,4-triazol-3-yl)pyridin-2-yl)-4-(4-(2,2,2-trifluoro-1-hydroxyethyl)-1H-imidazol-1-yl)picolinamide], the IC50 is reported as 11 nM. In the case of Cc1cc(-c2ccc(C3CC3)nc2)cc(C(=O)Nc2cccc(-c3nncn3C3CC3)n2)n1 [Example 233, 6-cyclopropyl-N-(6-(4-cyclopropyl-4H-1,2,4-triazol-3-yl)pyridin-2-yl)-6′-methyl-3,4′-bipyridine-2′-carboxamide], the IC50 is reported as 14 nM. Work on O=C(Nc1cccc(-c2nncn2C2CC2)c1)c1cc(-n2cnc(C(O)C(F)(F)F)c2)ccn1 (stereo not shown) [Example 206, N-(3-(4-cyclopropyl-4H-1,2,4-triazol-3-yl)phenyl)-4-(4-(2,2,2-trifluoro-1-hydroxyethyl)-1H-imidazol-1-yl)picolinamide] yielded an IC50 of 9 nM. Cn1cnnc1-c1cccc(NC(=O)c2cc(N3CCC(N)C3)ccn2)c1 (stereo not shown) [Example 33, 4-(3-aminopyrrolidin-1-yl)-N-(3-(4-methyl-4H-1,2,4-triazol-3-yl)phenyl)picolinamide] was tested, and the IC50 was 3480 nM. O=C(Nc1cccc(-c2nncn2C2CC2)n1)c1cc(-c2ccc(C3CC3)nc2)ccc1F [Example 224, N-(6-(4-cyclopropyl-4H-1,2,4-triazol-3-yl)pyridin-2-yl)-5-(6-cyclopropylpyridin-3-yl)-2-fluorobenzamide] was tested, and the IC50 was 13 nM. With Cc1cc(C(=O)Nc2cccc(-c3nncn3C3CC3)n2)cc(-n2cnc(C3CC3)c2)c1 [Example 209, 3-(4-cyclopropyl-1H-imidazol-1-yl)-N-(6-(4-cyclopropyl-4H-1,2,4-triazol-3-yl)pyridin-2-yl)-5-methylbenzamide] the IC50 was 7 nM. In the case of CCc1ncc(-c2ccnc(C(=O)Nc3cccc(-c4nncn4C4CC4)c3)c2)cc1F [Example 138, N-(3-(4-cyclopropyl-4H-1,2,4-triazol-3-yl)phenyl)-6-ethyl-5-fluoro-3,4′-bipyridine-2′-carboxamide], the IC50 is reported as 8 nM. O=C(Nc1cccc(-c2nncn2CC2CC2)c1)c1cc(-n2cnc(C3CC3)c2)ccn1 [Example 185, 4-(4-cyclopropyl-1H-imidazol-1-yl)-N-(3-(4-(cyclopropylmethyl)-4H-1,2,4-triazol-3-yl)phenyl)picolinamde] showed an IC50 of 34 nM. CC(C)n1ccc2ncc(-c3ccnc(C(=O)Nc4cccc(-c5nncn5C5CC5)c4)c3)cc21 [Example 243, N-(3-(4-cyclopropyl-4H-1,2,4-triazol-3-yl)phenyl)-4-(1-isopropyl-1H-pyrrolo[3,2-b]pyridin-6-yl)picolinamide] gave an IC50 of 15 nM. Work on Cc1noc(-c2ccnc(C(=O)Nc3cccc(-c4nncn4C4CC4)c3)c2)n1 [Example 253, N-(3-(4-cyclopropyl-4H-1,2,4-triazol-3-yl)phenyl)-4-(3-methyl-1,2,4-oxadiazol-5-yl)picolinamide] yielded an IC50 of 3490 nM. COc1ccc2ncc(-c3ccnc(C(=O)Nc4cccc(-c5nncn5C5CC5)c4)c3)cc2c1 [Example 251, N-(3-(4-cyclopropyl-4H-1,2,4-triazol-3-yl)phenyl)-4-(6-methoxyquinolin-3-yl)picolinamide] gave an IC50 of 7 nM. O=C(Nc1cccc(-c2nncn2C2CC2)c1)c1cc(-n2cnc3c2CCCC3)ccn1 [Example 86, N-(3-(4-cyclopropyl-4H-1,2,4-triazol-3-yl)phenyl)-4-(4,5,6,7-tetrahydro-1H-benzo[d]imidazol-1-yl)picolinamide] showed an IC50 of 9 nM. For O=C(Nc1cccc(-c2nncn2C2CC2)c1)c1cc(-c2ccccc2)ccn1 [Example 14, N-(3-(4-cyclopropyl-4H-1,2,4-triazol-3-yl)phenyl)-4-phenylpicolinamide], the IC50 was 279 nM.
